# Patent publication US10882860B2, “Treatment of osteoarthritis” (Samumed, LLC, priority 2015, dated 2021)
# Marks after values point to notes of the source that are not given here.
# Legend:
# [1] = test system: Wnt activity (Sp5-Luc reporter, SW480 colon carcinoma cells); assay: Sp5-Luc Wnt reporter gene assay; assay type: cell-based; conditions: Homo sapiens, FIG. 14
# Excerpt: The compound of Formula (I) was screened for Wnt activity. The screening assay is described as follows. Reporter cell lines were generated by stably transducing cancer cell lines (e.g., colon cancer) or primary cells (e.g., IEC-6 intestinal cells) with a lentiviral construct that included a Wnt-responsive promoter driving expression of the firefly luciferase gene.
# SW480 colon carcinoma cells were transduced with a lentiviral vector expressing luciferase with a human Sp5 promoter consisting of a sequence of eight TCF/LEF binding sites. SW480 cells stably expressing the Sp5-Luc reporter gene and a hygromycin resistant gene were selected by treatment with 150 μg/mL of hygromycin for 7 days. These stably transduced SW480 cells were expanded in cell culture and used for all further screening activities. […] Following incubation, 20 μL of BrightGlo luminescence reagent (Promega) was added to each well of the 384-well assay plates. The plates were placed on an orbital shaker for 2 min and then luminescence was quantified using the Envision (Perkin Elmer) plate reader. Readings were normalized to DMSO-only treated cells, and normalized activities were utilized for EC50 calculations using the dose-response log (inhibitor) vs. response—variable slope (four parameters) nonlinear regression feature available in GraphPad Prism 5.0 (or Dotmatics).
# [2] = test system: moderate-to-severe symptomatic knee OA subjects; assay: Phase 1 clinical study: safety and adverse events; assay type: in vivo, human; conditions: for AE(s) Reported - All / AE(s) Reported - Target knee, Arthralgia / AE(s) Reported - Target knee, Injection site bruising / AE(s) Reported - Target knee, Injection site pain / AE(s) Reported - Target knee, Joint injury / AE(s) Reported - Target knee, Joint stiffiiess / AE(s) Reported - Target knee, Joint swelling / AE(s) Reported - Target knee, Meniscus injury / DLT(s) Reported / SAE(s) Reported: single IA injection
# Protocol: A Phase 1 study was conducted to evaluate the safety and tolerability of the compound of Formula (I) (Form 1) administered by intra-articular injection into a target knee joint of moderate-to-severe symptomatic OA subjects.
# The study was a first-in-human, multicenter, 24-week, placebo-controlled, single-dose, dose-escalation safety study of a Wnt pathway inhibitor in subjects suffering from moderate to severe symptomatic knee OA. The sample size was 20 subjects (randomized 4:1, 16 active: 4 placebo) per dosing cohort. Inclusion criteria included: Age, 50-75 years; Western Ontario and McMaster Universities Arthritis Index (WOMAC) Total score, 36-72 (out of 96); Kellgren-Lawrence grade, 2 or 3; and a willingness to omit pain medication for 24 hours prior to pain assessments. Exclusion criteria included: BMI>40; and treatment with IA steroids within 2 months or HA derivatives within 6 months prior to injection. A full list of the inclusion and exclusion criteria for this study can be found on clinicaltrials.gov (NCT02095548).
# The dosing sequence included suspension compositions of either 0.03 mg, 0.07 mg, or 0.23 mg of the compound of Formula (I) (Form 1) per 2 mL injection in a vehicle containing 0.5% carboxymethylcellulose sodium and 0.05% polysorbate 80 in pH 7.4 phosphate buffered saline. The placebo contained only the diluent of 0.5% carboxymethylcellulose sodium and 0.05% polysorbate 80 in pH 7.4 phosphate buffered saline. The subjects were given a single, intra-articular injection in the target knee on Treatment Day 1 and participated in a follow-up period of 24 weeks.
# Safety, pharmacokinetics (PK), biomarker, and efficacy data were collected at baseline and during the 24-week follow-up period. Safety data included adverse events (AEs), concomitant medications, clinical laboratory sampling, medical history, vital signs, ECGs, hip bone density (DXA) analysis, qCT of the target knee, and evaluation of bone edema via MM. For PK data, samples were collected 0, 4, and 24 hours post dose, and at Weeks 4 and 12. Biomarker data included data for procollagen type 1 N-propeptide (P1NP), beta C-terminal telopeptide of type 1 collagen (βCTX), and cartilage oligomeric matrix protein (COMP). Efficacy data included measurements of WOMAC Total score, WOMAC Function and Pain subscores, pain VAS, Physician Global Assessment of Disease Activity, MM, and radiographs. Efficacy assessments were used to determine the percentage of OMERACT-OARSI “strict” responders. Exploratory analyses of efficacy outcomes were conducted using a baseline-adjusted repeated measures analysis of covariance (ANCOVA) in the Intention-to-Treat (ITT) population. The sponsor was unblinded after Week 12 for each cohort; site investigators remained blinded. All AEs reported in this study were […]. Investigator opinion regarding whether AEs were related to the compound of Formula (I) was also collected for informational purposes.
compound,measurement,setting,value
CC(C)CC(=O)Nc1cncc(-c2ccc3[nH]nc(-c4nc5c(-c6cccc(F)c6)cncc5[nH]4)c3c2)c1 [compound of Formula (I)],EC50,[1],2 nM
same,Subjects Who Reported AE(s) [N(%)],[2]; 0.03 mg cohort,9 (53%) N(%)
same,Subjects Who Reported No AE(s) [N(%)],[2]; 0.03 mg cohort,8 (47%) N(%)
same,AE(s) Reported - All,[2]; 0.03 mg cohort,15
same,"AE(s) Reported - Target knee, Arthralgia",[2]; 0.03 mg cohort,1
same,"AE(s) Reported - Target knee, Injection site bruising",[2]; 0.03 mg cohort,0
same,"AE(s) Reported - Target knee, Injection site pain",[2]; 0.03 mg cohort,0
same,"AE(s) Reported - Target knee, Joint injury",[2]; 0.03 mg cohort,1
same,"AE(s) Reported - Target knee, Joint stiffiiess",[2]; 0.03 mg cohort,0
same,"AE(s) Reported - Target knee, Joint swelling",[2]; 0.03 mg cohort,0
same,"AE(s) Reported - Target knee, Meniscus injury",[2]; 0.03 mg cohort,0
same,DLT(s) Reported,[2]; 0.03 mg cohort,0
same,SAE(s) Reported,[2]; 0.03 mg cohort,0
same,Subjects Who Reported AE(s) [N(%)],[2]; 0.07 mg cohort,6 (37%) N(%)
same,Subjects Who Reported No AE(s) [N(%)],[2]; 0.07 mg cohort,10 (63%) N(%)
same,AE(s) Reported - All,[2]; 0.07 mg cohort,11
same,"AE(s) Reported - Target knee, Arthralgia",[2]; 0.07 mg cohort,1
same,"AE(s) Reported - Target knee, Injection site bruising",[2]; 0.07 mg cohort,0
same,"AE(s) Reported - Target knee, Injection site pain",[2]; 0.07 mg cohort,2
same,"AE(s) Reported - Target knee, Joint injury",[2]; 0.07 mg cohort,0
same,"AE(s) Reported - Target knee, Joint stiffiiess",[2]; 0.07 mg cohort,0
same,"AE(s) Reported - Target knee, Joint swelling",[2]; 0.07 mg cohort,1
same,"AE(s) Reported - Target knee, Meniscus injury",[2]; 0.07 mg cohort,0
same,DLT(s) Reported,"[2]; 0.07 mg cohort, increased target knee pain and paroxysmal tachycardia",2*
same,SAE(s) Reported,"[2]; 0.07 mg cohort, paroxysmal tachycardia",1*
same,Subjects Who Reported AE(s) [N(%)],[2]; 0.23 mg cohort,7 (44%) N(%)
same,Subjects Who Reported No AE(s) [N(%)],[2]; 0.23 mg cohort,9 (56%) N(%)
same,AE(s) Reported - All,[2]; 0.23 mg cohort,25
same,"AE(s) Reported - Target knee, Arthralgia",[2]; 0.23 mg cohort,1
same,"AE(s) Reported - Target knee, Injection site bruising",[2]; 0.23 mg cohort,1
same,"AE(s) Reported - Target knee, Injection site pain",[2]; 0.23 mg cohort,1
same,"AE(s) Reported - Target knee, Joint injury",[2]; 0.23 mg cohort,0
same,"AE(s) Reported - Target knee, Joint stiffiiess",[2]; 0.23 mg cohort,1
same,"AE(s) Reported - Target knee, Joint swelling",[2]; 0.23 mg cohort,1
same,"AE(s) Reported - Target knee, Meniscus injury",[2]; 0.23 mg cohort,1
same,DLT(s) Reported,[2]; 0.23 mg cohort,0
same,SAE(s) Reported,[2]; 0.23 mg cohort,0
same,AEs considered related to study medication by the reporting investigator,[2]; 16 of 77 AEs,22%
same,exposed subjects who reported no AEs,[2]; 27 of 49 exposed subjects,55%
same,overall safety and tolerability,"[2]; single IA injection of suspension formulated from Form 1, interim data","safe, well-tolerated"
